Some test systems named below: SNB-19 CNS; SNB-75 CNS; CCRF-CEM leukemia; NCI-H460 lung; HCC-2998 colon; SN12C renal; LOX IMVI melanoma; HOP-92 NSCLC; OVCAR-3 ovarian; EKVX NSCLC.
Experiment in all cases: NCI-60 cell line screen, 48 h

In brackets after ≈: the same amount, converted by molar mass.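 Assay format: 96-well plates, 48-hour exposure. GI50 = concentration required for 50% inhibition of growth. TGI marks complete inhibition of growth.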

Consider `O=C1C2C3CC4C5C3C1C5C1(SCCS1)C42` (stereo not drawn), for which the TGI in the test with SNB-19 CNS, with SNB-75 CNS, in the test on CCRF-CEM leukemia, in the test with NCI-H460 lung, in the test with HCC-2998 colon and in the test on SN12C renal was greater than 100 µM throughout.

For `C=CCc1cccc(C=O)c1O`, the GI50 with SNB-19 CNS was 14.6 µM; in the test with SNB-75 CNS, 10.6 µM; with CCRF-CEM leukemia, 4 µM; with LOX IMVI melanoma, 17.3 µM; in the test on HOP-92 NSCLC it was 0.809 µM; in the test with NCI-H460 lung, greater than 100 µM. The GI50 with HCC-2998 colon was greater than 100 µM; in the test on SN12C renal it was 20.8 µM. Also, the TGI was greater than 100 µM with SNB-19 CNS; greater than 100 µM in the test with SNB-75 CNS; greater than 100 µM in the test on CCRF-CEM leukemia; greater than 100 µM with LOX IMVI melanoma; 59 µM in the test with HOP-92 NSCLC; greater than 100 µM in the test with NCI-H460 lung. Also, the TGI in the test with HCC-2998 colon and in the test with SN12C renal was greater than 100 µM throughout.

With `Cn1ncnc1[C@@H]1c2n[nH]c(=O)c3cc(F)cc(c23)N[C@H]1c1ccc(F)cc1`, the GI50 with SNB-19 CNS is greater than 100 µM; in the test with SNB-75 CNS it was greater than 100 µM; with CCRF-CEM leukemia, 91.6 µM; with LOX IMVI melanoma, greater than 100 µM; in the test with HOP-92 NSCLC, 92.6 µM; in the test with NCI-H460 lung, 78.4 µM. In addition, the GI50 with HCC-2998 colon, in the test on SN12C renal and with OVCAR-3 ovarian was greater than 100 µM each time. The TGI with SNB-19 CNS, in the test on SNB-75 CNS, in the test with CCRF-CEM leukemia, in the test with LOX IMVI melanoma, in the test on HOP-92 NSCLC and with NCI-H460 lung was greater than 100 µM throughout. For the same molecule, the TGI with HCC-2998 colon, with SN12C renal and in the test with OVCAR-3 ovarian was greater than 100 µM throughout.

`CCOc1ccc(N(C)c2ccc(/C=C/C3=[N+](C)c4ccccc4C3(C)C)cc2)cc1`: the GI50 in the test on SNB-19 CNS is 0.367 µM; in the test with SNB-75 CNS, 1.13 µM; with CCRF-CEM leukemia, 0.0841 µM; in the test with LOX IMVI melanoma, 0.133 µM; with HOP-92 NSCLC, 0.197 µM; in the test with NCI-H460 lung, 0.306 µM. The GI50 in the test with HCC-2998 colon was 0.391 µM; in the test on SN12C renal it was 0.309 µM; in the test with OVCAR-3 ovarian, 0.151 µM. In addition, the TGI stood at 1.8 µM in the test with SNB-19 CNS; 2.76 µM in the test on SNB-75 CNS; 0.647 µM in the test with CCRF-CEM leukemia; 0.364 µM with LOX IMVI melanoma; 0.86 µM in the test on HOP-92 NSCLC; 1.38 µM in the test on NCI-H460 lung. Also, the figures for the TGI with HCC-2998 colon, in the test on SN12C renal and with OVCAR-3 ovarian were 1.55 µM, 1.52 µM and 1.09 µM, respectively.

As to `N#CCCNc1nonc1-c1nc2ccccc2n1CC(=O)c1ccc(N)cc1`, the TGI is greater than 100 µM in the test on SNB-19 CNS; greater than 73 µM in the test with SNB-75 CNS; greater than 100 µM in the test with CCRF-CEM leukemia; greater than 100 µM in the test on LOX IMVI melanoma; 0.456 µM in the test on HOP-92 NSCLC; greater than 32.9 µM in the test with NCI-H460 lung. Moreover, the TGI is greater than 100 µM in the test with HCC-2998 colon, greater than 100 µM in the test on SN12C renal and 0.0549 µM in the test on OVCAR-3 ovarian. The GI50 in the test with SNB-75 CNS was 0.0232 µM; with CCRF-CEM leukemia, 0.029 µM; in the test with LOX IMVI melanoma it was 0.0326 µM; with HOP-92 NSCLC, less than 0.01 µM; with NCI-H460 lung, 0.0317 µM; in the test with HCC-2998 colon, 0.0338 µM. For the same molecule, the GI50 in the test with SN12C renal is 0.0447 µM; in the test on OVCAR-3 ovarian, 0.0207 µM.

Turning to `CC(C)(CN1CCCCC1)C(=O)/C=C/c1ccccc1`, the TGI in the test with SNB-19 CNS is 34.6 µM; in the test with SNB-75 CNS, 39.3 µM; with CCRF-CEM leukemia, 35.4 µM; in the test on EKVX NSCLC it was 35.2 µM; with LOX IMVI melanoma it was 41.3 µM; with NCI-H460 lung it was 66.9 µM. Further, the figures for the TGI with HCC-2998 colon, in the test with SN12C renal and in the test on OVCAR-3 ovarian were 27.9 µM, 42.3 µM and 21.6 µM, respectively.

Turning to `CN1C(=O)C(c2c[nH]c3ccccc23)=C(c2c[nH]c3ccccc23)C1=O`, the GI50 was 9.77 µM in the test with SNB-19 CNS; 4.26 µM in the test with SNB-75 CNS; 7.84 µM in the test with CCRF-CEM leukemia; 3.73 µM with LOX IMVI melanoma; 3.08 µM in the test with HOP-92 NSCLC; 5.52 µM in the test with NCI-H460 lung. In addition, the GI50 with HCC-2998 colon was 5.46 µM; with SN12C renal, 7.75 µM; with OVCAR-3 ovarian it was 7.03 µM. Besides, the TGI was greater than 25 µM with SNB-19 CNS; greater than 25 µM in the test on SNB-75 CNS; greater than 25 µM with CCRF-CEM leukemia; 9.3 µM in the test on LOX IMVI melanoma; 13.3 µM with HOP-92 NSCLC; 15 µM with NCI-H460 lung. Besides, the TGI is 13.1 µM with HCC-2998 colon, greater than 25 µM in the test on SN12C renal and greater than 25 µM in the test with OVCAR-3 ovarian.

For `CC1(OCc2ccccc2)C(=O)N2C1NCC2(C)C` (stereo not drawn), the TGI in the test with SNB-19 CNS, in the test on SNB-75 CNS, in the test on CCRF-CEM leukemia, in the test on EKVX NSCLC, with LOX IMVI melanoma and in the test with NCI-H460 lung was greater than 100 µM throughout. In addition, the TGI with HCC-2998 colon, in the test with SN12C renal and in the test on OVCAR-3 ovarian was greater than 100 µM each time.

For the molecule `C/C(CN1C(=O)c2ccccc2C1=O)=N\NS(=O)(=O)c1ccc2ccccc2c1`, the TGI in the test with SNB-19 CNS, in the test on SNB-75 CNS, in the test with CCRF-CEM leukemia, in the test on EKVX NSCLC, with LOX IMVI melanoma and with NCI-H460 lung was greater than 100 µM each time. Further, the TGI with HCC-2998 colon, in the test with SN12C renal and in the test with OVCAR-3 ovarian was greater than 100 µM each time.

Regarding `CC(C)(C)CC(C)(C)c1ccc(OCCO)cc1`, the GI50 in the test with SNB-19 CNS is 6.58 µg/mL; in the test with SNB-75 CNS, 3.45 µg/mL; with CCRF-CEM leukemia, 6.02 µg/mL; in the test with EKVX NSCLC, 1.34 µg/mL (≈ 5.34 µM); with LOX IMVI melanoma, 2.19 µg/mL; in the test on NCI-H460 lung it was 2.95 µg/mL. Also, the GI50 in the test with HCC-2998 colon is 7.57 µg/mL; in the test with SN12C renal, 6.38 µg/mL; with OVCAR-3 ovarian, 2.63 µg/mL. Further, the TGI worked out at 19.5 µg/mL with SNB-19 CNS; 18.1 µg/mL with SNB-75 CNS; 40.1 µg/mL with CCRF-CEM leukemia; 30.1 µg/mL in the test with EKVX NSCLC; 11.2 µg/mL in the test on LOX IMVI melanoma; 16.4 µg/mL in the test with NCI-H460 lung. Further, the TGI in the test with HCC-2998 colon amounted to 19.7 µg/mL; in the test with SN12C renal, 16.7 µg/mL; in the test with OVCAR-3 ovarian it was 13.4 µg/mL.

Values taken from PubChem BioAssay (NCI).
